Results as given in PubChem BioAssay AID743341 (Broad Institute, 2014).
Records with an inconclusive call do not appear.

What follows are molecules tested on C2C12 myotubes + simvastatin, MHC imaging tube length, 48 h (assay: rescue of myotube length under simvastatin, confirmation, orthogonal assay for statin myotoxicity suppressor project, imaging, C2C12 myotubes, MHC immunostaining, dry powder (AID 743341)).
In the case of `C[C@H](CO)N1C[C@H](C)[C@H](CN(C)Cc2ccc(C(=O)Nc3ccccc3N)cc2)Oc2ccc(NC(=O)Nc3cccc4ccccc34)cc2C1=O`, the AC40 was 5.9 µM. Molecule `C[C@H]1CN([C@@H](C)CO)C(=O)c2cc(N(C)C)ccc2O[C@@H]1CN(C)Cc1ccc(C(=O)Nc2ccccc2N)cc1` has an AC40 of 1.55 µM. Molecule `C[C@H]1CN([C@@H](C)CO)C(=O)Cc2cc(NC(=O)CCCCCC(=O)Nc3ccccc3N)ccc2O[C@H]1CN(C)Cc1ccc(C(F)(F)F)cc1` has an AC40 of 10.3 µM. `C[C@H](CO)N1C[C@H](C)[C@H](CN(C)Cc2ccc(C(=O)Nc3ccccc3N)cc2)Oc2ccc(N(C)C)cc2C1=O` was tested, and the AC40 was 0.581 µM. Work on `C[C@H](CO)N1C[C@H](C)[C@H](CN(C)CC2CCCCC2)Oc2ccc(NC(=O)CCCCCC(=O)Nc3ccccc3N)cc2CC1=O` yielded an AC40 of 13.2 µM. Molecule `C[C@@H]1CN([C@@H](C)CO)C(=O)c2cccc(NC(=O)Nc3ccc4c(c3)OCO4)c2O[C@H]1CN(C)Cc1ccc(C(=O)Nc2ccccc2N)cc1` has an AC40 of 7.66 µM. Molecule `C[C@@H]1CN([C@H](C)CO)C(=O)c2cc(NC(=O)Nc3cccc4ccccc34)ccc2O[C@@H]1CN(C)Cc1ccc(C(=O)Nc2ccccc2N)cc1` has an AC40 of 6.47 µM. For `C[C@H]1CN([C@@H](C)CO)C(=O)Cc2cc(NC(=O)CCCCCC(=O)Nc3ccccc3N)ccc2O[C@H]1CN(C)CC1CCCCC1`, the AC40 was 8.03 µM. `C[C@H]1CN([C@@H](C)CO)S(=O)(=O)c2ccc(C#CC3CC3)cc2O[C@H]1CN(C)C(=O)Nc1cc(F)ccc1F` showed an AC40 of 19.5 µM. With `C[C@H]1CN([C@@H](C)CO)S(=O)(=O)c2ccc(C#Cc3ccc(F)cc3)cc2O[C@@H]1CN(C)S(=O)(=O)c1cn(C)cn1` the AC40 was 13 µM.
